Measured values reported in patent US10517867B2, “Posaconazole derivative, pharmaceutical composition and use thereof” (priority 2016, dated 2019).
Read-outs that look alike come from different tables or passages of the source.

Columns and labels:
[1] = In vitro metabolic stability in human plasma; type: in vitro ADME; conditions: human, plasma, 37° C., 10 μM compound, read-out: Human plasma T1/2
Protocol: (§1) This example detects the metabolic stability of the compounds of the present disclosure in human (rat) plasma and intestinal S9 in vitro. In a human (rat) plasma reaction system, 990 μl of human (rat) plasma was taken and incubated at 37° C. for 5 minutes, and 10 μl of the compound mother liquor was used to initiate the reaction. In the human (rat) intestinal S9 stability experiment, in the order shown in Table 2 below, the samples were added and incubated in a 37° C. water bath to initiate the reaction, each sample performed in triplicates. Respectively, at 1 minute, 2 minutes, 5 minutes, 15 minutes, 30 minutes after the reaction began, 100 μL of each was taken and added to a centrifuge tube containing 400 μL of 0° C. precooled internal standard working solution. The reaction was terminated, vortexed and mixed for 1 minute, centrifuged at 10000×g for 10 minutes in a 4° C. precooled high-speed centrifuge, and the supernatant was detected with HPLC. The test results were used to calculate metabolic half-life using WinNonlin (version 6.2 Pharsight, Mountain View, Calif.) with a non-compartmental model.
(§2) Compound stock solution concentration: 1 mM
(§3) Reaction matrix: human (rat) plasma, intestinal S9 purchased from Research Institute for Liver Diseases (Shanghai) Co., Ltd.

[2] = In vitro metabolic stability in rat intestine S9; type: in vitro ADME; conditions: rat, 37° C., 10 μM compound, 1 mg/mL S9, NADPH regeneration system, read-out: Rat intestine S9 T1/2
Protocol: as §1, §2, §3

[3] = In vitro metabolic stability in human intestine S9; type: in vitro ADME; conditions: human, 37° C., 10 μM compound, 1 mg/mL S9, NADPH regeneration system, read-out: Human intestine S9 T1/2
Protocol: as §1, §2, §3

[4] = Solid stability test (stability chamber, HPLC total impurity); type: physicochemical
[5] = In vitro metabolic stability in rat plasma; type: in vitro ADME; conditions: rat, plasma, 37° C., 10 μM compound, read-out: Rat plasma T1/2
Protocol: as §1, §2, §3

[6] = Determination of solubility in deionized water (HPLC, external standard); conditions: 25 °C, water, thermodynamic from solid
[7] = test system: Candida albicans ATCC10231; experiment: Systemic fungal infection in mice, intragastric administration; type: in vivo, ICR mice; conditions: Candida albicans, ATCC10231, po
Protocol: (§4) ICR mice, weighing 18-22 g, male, provided by Hubei Experimental Animal Center.
Prior to the experiment, a small amount of Candida albicans was picked from an SDA medium kept at 4° C. with an inoculation loop and inoculated into 1 ml YPD culture medium, cultured at 30° C. with 200 rpm shaking and activated for 16 hours, so that the fungus was in the late stage of exponential growth. Counted with a hemocytometer and the fungal solution concentration was adjusted to 1×10^3 to 5×10^3 CFU/ml with RPMI1640 medium. Monoclonal Candida albicans on SDA plate was picked up, inoculated into 1 ml YPD (Yeast Extract Peptone Dextrose Medium, the same below) culture medium, cultured at 35° C., 200 rpm for 16 hours until late exponential growth phase. Candida albicans was inoculated into fresh medium for culturing for 6 hours at 1%, centrifuged at 1000×g for 5 minutes, washed with physiological saline three times until the supernatant was colorless, counted with a hemocytometer, and the cell concentration was adjusted to 5×10^6 cells/ml. A tail vein injection of 0.1 ml/10 g caused a systemic fungal infection in mice. […] A total of 7 days of observations were performed. All dead mice were burned with ethanol.

[8] = test system: Candida albicans ATCC10231; experiment: Systemic fungal infection in mice, intravenous administration; type: in vivo, ICR mice
Protocol: as §4
Prior to the experiment, a small amount of Candida albicans was picked from an SDA (sacharomyces agar, the same below) medium kept at 4° C. with an inoculation loop and inoculated into 1 ml YPD (Yeast Extract Peptone Dextrose Medium) culture medium, cultured at 30° C. with 200 rpm shaking and activated for 16 hours, so that the fungus was in the late stage of exponential growth. Counted with a hemocytometer and the fungal solution concentration was adjusted to 1×10^3-5×10^3 CFU/ml with RPMI1640 medium (Roswell Park Memorial Institute 1640, the same below). Monoclonal Candida albicans on SDA plate was picked up, inoculated into 1 ml YPD (Yeast Extract Peptone Dextrose Medium, the same below) culture medium, cultured at 35° C., 200 rpm for 16 hours until late exponential growth phase. Candida albicans was inoculated into fresh medium for culturing for 6 hours at 1%, centrifuged at 1000×g for 5 minutes, washed with physiological saline three times until the supernatant was colorless, counted with a hemocytometer, and the cell concentration was adjusted to 5×10^6 cells/ml. A tail vein injection of 0.1 ml/10 g caused a systemic fungal infection in mice. […] A total of 7 days of observations were performed. All dead mice were burned with ethanol.

[9] = 24 h, read-out: survival rate of mice, day 1, 20 mg/kg intragastric once daily for 5 days, day 1
[10] = 48 h, read-out: survival rate of mice, day 2, 20 mg/kg intragastric once daily for 5 days, day 2
[11] = 72 h, read-out: survival rate of mice, day 3, 20 mg/kg intragastric once daily for 5 days, day 3
[12] = 96 h, read-out: survival rate of mice, day 4, 20 mg/kg intragastric once daily for 5 days, day 4
[13] = 120 h, read-out: survival rate of mice, day 5, 20 mg/kg intragastric once daily for 5 days, day 5
[14] = 144 h, read-out: survival rate of mice, day 6, 20 mg/kg intragastric once daily for 5 days, day 6
[15] = 168 h, read-out: survival rate of mice, day 7, 20 mg/kg intragastric once daily for 5 days, day 7
[16] = 24 h, read-out: survival rate of mice, day 1
[17] = 48 h, read-out: survival rate of mice, day 2
[18] = 72 h, read-out: survival rate of mice, day 3
[19] = 96 h, read-out: survival rate of mice, day 4
[20] = 120 h, read-out: survival rate of mice, day 5
[21] = 144 h, read-out: survival rate of mice, day 6
[22] = 168 h, read-out: survival rate of mice, day 7
[23] = 24 h, 20 mg/kg intragastric once daily for 5 days, day 1, read-out: survival rate of mice, day 1
[24] = 48 h, 20 mg/kg intragastric once daily for 5 days, day 2, read-out: survival rate of mice, day 2
[25] = 72 h, 20 mg/kg intragastric once daily for 5 days, day 3, read-out: survival rate of mice, day 3
[26] = 96 h, 20 mg/kg intragastric once daily for 5 days, day 4, read-out: survival rate of mice, day 4
[27] = 120 h, 20 mg/kg intragastric once daily for 5 days, day 5, read-out: survival rate of mice, day 5
[28] = 144 h, 20 mg/kg intragastric once daily for 5 days, day 6, read-out: survival rate of mice, day 6
[29] = 168 h, 20 mg/kg intragastric once daily for 5 days, day 7, read-out: survival rate of mice, day 7

Compound	half-life at 10 µM [1] [min]	half-life at 10 µM ([2]; intestinal S9, pH 7.4) [min]	half-life at 10 µM ([3]; intestinal S9) [min]	Total impurity increment in 30 days [4] [%]	half-life at 10 µM [5] [min]	solubility at 30 min [6] [mg/mL]	responders at 20 mg/kg [7, 9] [%]	responders at 20 mg/kg [7, 10] [%]	responders at 20 mg/kg [7, 11] [%]	responders at 20 mg/kg [7, 12] [%]	responders at 20 mg/kg [7, 13] [%]	responders at 20 mg/kg [7, 14] [%]	responders at 20 mg/kg [7, 15] [%]	half-life at 10 µM ([2]; pH 7.4) [min]	half-life at 10 µM [3] [min]	further results
CC[C@@H]([C@H](C)O)n1ncn(-c2ccc(N3CCN(c4ccc(OC[C@@H]5CO[C@@](Cn6c[n+](C(C)OC(=O)N(C)c7ncccc7COC(=O)[C@@H](N)CCCCN)cn6)(c6ccc(F)cc6F)C5)cc4)CC3)cc2)c1=O (stereo partly shown) [ST0024]	1.57 ± 0.34	15.6 ± 5.96	12.2 ± 5.9	0.62	2.51 ± 0.69	> 50	100	90	90	80	80	70	70	–	–	–
CC[C@@H]([C@H](C)O)n1ncn(-c2ccc(N3CCN(c4ccc(OC[C@@H]5CO[C@@](Cn6c[n+](C(C)OC(=O)N(C)c7ncccc7COC(=O)CN(C)C)cn6)(c6ccc(F)cc6F)C5)cc4)CC3)cc2)c1=O (stereo partly shown) [ST0045]	15.2 ± 3.99	26 ± 5.69	33.2 ± 4.23	1.68	11.9 ± 2.96	> 50	–	–	–	–	–	–	–	–	–	–
CC[C@@H](C(C)OC(=O)OC(C)OC(=O)CCCCCCOP(=O)([O-])[O-])n1ncn(-c2ccc(N3CCN(c4ccc(OC[C@@H]5CO[C@@](Cn6cncn6)(c6ccc(F)cc6F)C5)cc4)CC3)cc2)c1=O.[Na+].[Na+] (stereo partly shown) [ST0070]	0.95 ± 0.31	–	–	–	1.12 ± 0.56	> 50	100	90	90	90	80	70	70	17.6 ± 5.85	20.2 ± 8.02	responders at 20 mg/kg [8, 16]: 100%; responders at 20 mg/kg [8, 17]: 90%; responders at 20 mg/kg [8, 18]: 90%; responders at 20 mg/kg [8, 19]: 90%; responders at 20 mg/kg [8, 20]: 90%; responders at 20 mg/kg [8, 21]: 90%; responders at 20 mg/kg [8, 22]: 90%
CC[C@@H]([C@H](C)OC(=O)OCOC(=O)CCCCCOP(=O)([O-])[O-])n1ncn(-c2ccc(N3CCN(c4ccc(OC[C@@H]5CO[C@@](Cn6cncn6)(c6ccc(F)cc6F)C5)cc4)CC3)cc2)c1=O.[Na+].[Na+] [ST0073]	0.92 ± 0.11	–	–	–	0.75 ± 0.23	> 50	100	90	80	80	80	70	70	16 ± 8.96	16.2 ± 6.08	responders at 20 mg/kg [8, 16]: 100%; responders at 20 mg/kg [8, 17]: 100%; responders at 20 mg/kg [8, 18]: 100%; responders at 20 mg/kg [8, 19]: 100%; responders at 20 mg/kg [8, 20]: 90%; responders at 20 mg/kg [8, 21]: 90%; responders at 20 mg/kg [8, 22]: 90%
CC[C@@H]([C@H](C)OC(=O)OC(C)OC(=O)CNC)n1ncn(-c2ccc(N3CCN(c4ccc(OC[C@@H]5CO[C@@](Cn6cncn6)(c6ccc(F)cc6F)C5)cc4)CC3)cc2)c1=O.Cl (stereo partly shown) [ST0053]	19.9 ± 3.01	48.2 ± 6.85	50.2 ± 5.15	–	21.2 ± 4.52	–	–	–	–	–	–	–	–	–	–	Total impurity increment in 30 days ([4]; solid, packaged, 25° C.±2° C., relative humidity 60%±2%): 0.85%; responders at 20 mg/kg [7, 23]: 90%; responders at 20 mg/kg [7, 24]: 80%; responders at 20 mg/kg [7, 25]: 70%; responders at 20 mg/kg [7, 26]: 60%; responders at 20 mg/kg [7, 27]: 60%; responders at 20 mg/kg [7, 28]: 60%; responders at 20 mg/kg [7, 29]: 60%
CC[C@@H](C(C)OC(=O)OC(C)OC(=O)CCCOS(=O)(=O)[O-])n1ncn(-c2ccc(N3CCN(c4ccc(OC[C@@H]5CO[C@@](Cn6cncn6)(c6ccc(F)cc6F)C5)cc4)CC3)cc2)c1=O.[Na+] (stereo partly shown) [ST0077]	1.97 ± 1.29	–	–	–	1.55 ± 0.56	> 50	–	–	–	–	–	–	–	19.3 ± 5.65	21.3 ± 5.09	responders at 20 mg/kg ([8]; 24 h, 20 mg/kg tail vein once daily for 5 days, day 1, read-out: survival rate of mice, day 1): 100%; responders at 20 mg/kg ([8]; 48 h, 20 mg/kg tail vein once daily for 5 days, day 2, read-out: survival rate of mice, day 2): 100%; responders at 20 mg/kg ([8]; 72 h, 20 mg/kg tail vein once daily for 5 days, day 3, read-out: survival rate of mice, day 3): 100%; responders at 20 mg/kg ([8]; 96 h, 20 mg/kg tail vein once daily for 5 days, day 4, read-out: survival rate of mice, day 4): 100%; responders at 20 mg/kg ([8]; 120 h, 20 mg/kg tail vein once daily for 5 days, day 5, read-out: survival rate of mice, day 5): 90%; responders at 20 mg/kg ([8]; 144 h, 20 mg/kg tail vein once daily for 5 days, day 6, read-out: survival rate of mice, day 6): 90%; responders at 20 mg/kg ([8]; 168 h, 20 mg/kg tail vein once daily for 5 days, day 7, read-out: survival rate of mice, day 7): 90%; responders at 20 mg/kg [7, 23]: 100%; responders at 20 mg/kg [7, 24]: 90%; responders at 20 mg/kg [7, 25]: 80%; responders at 20 mg/kg [7, 26]: 80%; responders at 20 mg/kg [7, 27]: 80%; responders at 20 mg/kg [7, 28]: 70%; responders at 20 mg/kg [7, 29]: 70%
CC[C@@H]([C@H](C)O)n1ncn(-c2ccc(N3CCN(c4ccc(OC[C@@H]5CO[C@@](Cn6c[n+](C(C)OC(=O)N(C)c7ncccc7COC(=O)[C@@H](N)Cc7ccc(O)cc7)cn6)(c6ccc(F)cc6F)C5)cc4)CC3)cc2)c1=O (stereo partly shown) [ST0027]	20.4 ± 3.65	39.5 ± 6.69	45.9 ± 8.12	0.75	15.9 ± 7.85	> 50	–	–	–	–	–	–	–	–	–	–
